{
  "source": "patent US20060252107A1",
  "about": "“Compositions and methods for diagnosing and treating retinal diseases” (Acucela, Inc., priority 2005, published 2006)",
  "key": {"photoreceptor cells": {"test_system": "photoreceptor cells", "test": "mature retinal cell culture system with A2E as cell stressor, photoreceptor survival", "format": "cell-based, Porcine", "description": "(§1) The retinal cell culture system may be exposed to A2E at any concentration between 1 pM and 200 μM (e.g., 1 pM, 10 pM, 100 pM, 250 pM, 500 pM, 750 pM, 1 nM, 10 nM, 50 nM, 100 nM, 250 nM, 500 nM, 750 nM, 1 μM, 2 μM, 5 μM, 7.5 μM, 10 μM, 15 μM, 20 μM, 25 μM, 40 μM, 50 μM, 75 μM, 100 μM, 120 μM, 200 μM); or 250 μM, 500 μM, or 750 μM), between 1 μM and 40 μM, or between 10 μM and 20 μM, for a period of time, for example, between 2 and 48 hours or between 12 and 36 hours. In another embodiment, the cell culture may be exposed to lower concentrations of A2E (for example, between 1 pM and 10 μM or between 1 nM and 1 μM) for longer times (such as about one week, about two weeks, or about one month (4 weeks)).\n(§2) Porcine eyes are obtained from Kapowsin Meats, Inc. (Graham, Wash.). Eyes are enucleated, and muscle and tissue are cleaned away from the orbit. Eyes are cut in half along their equator and the neural retina is dissected from the […] part of the eye in buffered saline solution, according to standard methods known in the art. […]\n(§3) The retinal neuronal cells are cultured for 1, 3, 6, and 8 weeks, and the cells are analyzed by immunohistochemistry at each time point. […]\n(§4) Cultures are analyzed by counting rhodopsin-labeled photoreceptors and NFM-labeled ganglion cells using an Olympus 1X81 or CZX41 microscope (Olympus, Tokyo, Japan). […]"}, "ganglion cells": {"test_system": "ganglion cells", "test": "mature retinal cell culture system with A2E as cell stressor, ganglion cell survival", "format": "cell-based, Porcine", "conditions": "20 μM A2E for 48 hours", "description": "as §1, §2, §3, §4"}},
  "data": [
    {"smiles": "CC(C=CC1=C(C)CCCC1(C)C)=CC=CC(C)=Cc1cc(C=CC=C(C)C=CC2=C(C)CCCC2(C)C)cc[n+]1CCO", "note": "[A2E, N-retinylidene-N-retinyl-ethanolamine]", "values": [
      {"measurement": "death of photoreceptor cells", "setting": "photoreceptor cells; 20 μM A2E for 48 hours, compared to photoreceptor cells not exposed to A2E", "value": "more than 90%"},
      {"measurement": "effect of exposure of the retinal neuronal cell culture system to A2E", "setting": "photoreceptor cells; concentration and time not stated", "value": "selective killing of certain cells, particularly photoreceptor cells"},
      {"measurement": "survival of ganglion cells", "setting": "ganglion cells", "value": "not adversely affected"}
    ]}
  ]
}
